Experimental data published in patent US8232401B2 (Japan Tobacco Inc., priority 2002, dated 2012).

Target: T1, HIV integrase (Human immunodeficiency virus type 1 group M subtype B, UniProt P12497, F1332H)
T1 construct: HIV integrase full length gene; made in house; host or cells: Escherichia coli BL21(DE3)
Assay: Determination of enzyme (HIV integrase) inhibitory activity (strand transfer, microtiter plate, absorbance at 450 nm)
Assay type: biochemical, HIV (Human Immunodeficiency Virus (type 1))
Conditions: recombinant HIV integrase (F185H) expressed in E. coli; donor DNA on streptavidin plate, digoxigenin target DNA; 37° C.

SMILES | IC50
CCOc1cc2c(cc1Cc1cccc(Cl)c1F)c(=O)c(C(=O)O)cn2[C@@H](C)CO [Example 3-61, (S)-6-(3-Chloro-2-fluorobenzyl)-7-ethoxy-1-(2-hydroxy-1-methylethyl)-4-oxo-1,4-dihydroquinoline-3-carboxylic acid] | 7.6 nM
CN(C)c1cc2c(cc1Cc1cccc(Cl)c1F)c(=O)c(C(=O)O)cn2CCO [Example 3-62, 6-(3-Chloro-2-fluorobenzyl)-7-dimethylamino-1-(2-hydroxyethyl)-4-oxo-1,4-dihydroquinoline-3-carboxylic acid] | 27 nM
O=C(O)c1cn(CCO)c2cc(OCC3CCCCC3)c(Cc3cccc(Cl)c3F)cc2c1=O [Example 3-63, 6-(3-Chloro-2-fluorobenzyl)-7-cyclohexylmethoxy-1-(2-hydroxyethyl)-4-oxo-1,4-dihydroquinoline-3-carboxylic acid] | 17 nM
CCN(CC)c1cc(Cc2cccc(Cl)c2F)cc2c(=O)c(C(=O)O)cn(CCO)c12 [Example 3-64, 6-(3-Chloro-2-fluorobenzyl)-8-diethylamino-1-(2-hydroxyethyl)-4-oxo-1,4-dihydroquinoline-3-carboxylic acid] | 18 nM
CNc1cc2c(cc1Cc1cccc(Cl)c1F)c(=O)c(C(=O)O)cn2CCO [Example 3-65, 6-(3-Chloro-2-fluorobenzyl)-7-methylamino-1-(2-hydroxyethyl)-4-oxo-1,4-dihydroquinoline-3-carboxylic acid] | 15 nM
O=C(O)c1cn(CCO)c2cc(N3CCCC3)c(Cc3cccc(Cl)c3F)cc2c1=O [Example 3-66, 6-(3-Chloro-2-fluorobenzyl)-1-(2-hydroxyethyl)-4-oxo-7-pyrrolidin-1-yl-1,4-dihydroquinoline-3-carboxylic acid] | 48 nM
CCOc1cc(Cc2cccc(Cl)c2F)cc2c(=O)c(C(=O)O)cn([C@@H](C)CO)c12 [Example 3-67, (S)-6-(3-Chloro-2-fluorobenzyl)-8-ethoxy-1-(2-hydroxy-1-methylethyl)-4-oxo-1,4-dihydroquinoline-3-carboxylic acid] | 6.4 nM
O=C(O)c1cn(CCO)c2c(OCC3CCCCC3)cc(Cc3cccc(Cl)c3F)cc2c1=O [Example 3-69, 6-(3-Chloro-2-fluorobenzyl)-8-cyclohexylmethoxy-1-(2-hydroxyethyl)-4-oxo-1,4-dihydroquinoline-3-carboxylic acid] | 4.3 nM
CC[C@@H](CO)n1cc(C(=O)O)c(=O)c2cc(Cc3cccc(Cl)c3F)c(OC(C)C)cc21 [Example 3-72, (S)-6-(3-Chloro-2-fluorobenzyl)-1-[1-(hydroxymethyl)propyl]-7-isopropyloxy-4-oxo-1,4-dihydroquinoline-3-carboxylic acid] | 3.8 nM
CC[C@@H](CO)n1cc(C(=O)O)c(=O)c2cc(Cc3cccc(Cl)c3F)c(OC)cc21 [Example 3-73, (S)-6-(3-Chloro-2-fluorobenzyl)-1-[1-(hydroxymethyl)propyl]-7-methoxy-4-oxo-1,4-dihydroquinoline-3-carboxylic acid] | 3.3 nM
CC(C)Oc1cc2c(cc1Cc1cccc(Cl)c1F)c(=O)c(C(=O)O)cn2[C@@H](C)CO [Example 3-74] | 4.9 nM
O=C(O)c1cn(CCO)c2cc(OCCO)c(Cc3cccc(Cl)c3F)cc2c1=O [Example 3-76, 6-(3-Chloro-2-fluorobenzyl)-1-(2-hydroxyethyl)-7-(2-hydroxyethyloxy)-4-oxo-1,4-dihydroquinoline-3-carboxylic acid] | 8.5 nM
O=C(O)c1cn(CCO)c2cc(OCCCO)c(Cc3cccc(Cl)c3F)cc2c1=O [Example 3-77, 6-(3-Chloro-2-fluorobenzyl)-1-(2-hydroxyethyl)-1-7-(3-hydroxypropyloxy)-4-oxo-1,4-dihydroquinoline-3-carboxylic acid] | 8.9 nM
O=C(O)c1cn(CCO)c2c(NCCO)cc(Cc3cccc(Cl)c3F)cc2c1=O [Example 3-78, 6-(3-Chloro-2-fluorobenzyl)-1-(2-hydroxyethyl)-8-(2-hydroxyethylamino)-4-oxo-1,4-dihydroquinoline-3-carboxylic acid] | 16 nM
CC[C@@H](CO)n1cc(C(=O)O)c(=O)c2cc(Cc3cccc(Cl)c3F)cc(OC)c21 [Example 3-79, (S)-6-(3-Chloro-2-fluorobenzyl)-1-[1-(hydroxymethyl)propyl]-8-methoxy-4-oxo-1,4-dihydroquinoline-3-carboxylic acid] | 6.7 nM
C[C@@H](CO)n1cc(C(=O)O)c(=O)c2cc(Cc3cccc(Cl)c3F)cc(N(C)C)c21 [Example 3-80, (S)-6-(3-Chloro-2-fluorobenzyl)-8-dimethylamino-1-(2-hydroxy-1-methylethyl)-4-oxo-1,4-dihydroquinoline-3-carboxylic acid] | 8.8 nM
O=C(O)c1cn(CCO)c2ncc(Cc3cccc(Cl)c3Cl)cc2c1=O [Example 3-86] | 140 nM
CS(=O)(=O)c1ccc(Cl)c(Cc2ccc3c(c2)c(=O)c(C(=O)O)cn3CCO)c1 [Example 4-1, 6-(2-Chloro-5-methanesulfonylbenzyl)-1-(2-hydroxyethyl)-4-oxo-1,4-dihydroquinoline-3-carboxylic acid] | 860 nM

SMILES | IC50
CCc1ccccc1Cc1ccc2c(c1)c(=O)c(C(=O)O)cn2CCO [Example 4-4, 6-(2-Ethylbenzyl)-1-(2-hydroxyethyl)-4-oxo-1,4-dihydroquinoline-3-carboxylic acid] | 550 nM
O=C(O)c1cn(CCO)c2ccc(Cc3cc(F)ccc3Cl)cc2c1=O [Example 4-6, 6-(2-Chloro-5-fluorobenzyl)-1-(2-hydroxyethyl)-4-oxo-1,4-dihydroquinoline-3-carboxylic acid] | 460 nM
O=C(O)c1cn(CCO)c2ccc(Cc3cc(Br)ccc3Cl)cc2c1=O [Example 4-7, 6-(5-Bromo-2-chlorobenzyl)-1-(2-hydroxyethyl)-4-oxo-1,4-dihydroquinoline-3-carboxylic acid] | 130 nM
O=C(O)c1cn(CCO)c2cc(F)c(Cc3cccc(Cl)c3Cl)cc2c1=O [Example 4-9, 6-(2,3-Dichlorobenzyl)-7-fluoro-1-(2-hydroxyethyl)-4-oxo-1,4-dihydroquinoline-3-carboxylic acid] | 21 nM
O=C(O)c1cn(CCO)c2ccc(Cc3cc(O)ccc3Cl)cc2c1=O [Example 4-11, 6-(2-Chloro-5-hydroxybenzyl)-1-(2-hydroxyethyl)-4-oxo-1,4-dihydroquinoline-3-carboxylic acid] | 220 nM
O=C(O)c1cn(CCO)c2ccc(Cc3cccc(Cl)c3Cl)c(F)c2c1=O [Example 4-12, 6-(2,3-Dichlorobenzyl)-5-fluoro-1-(2-hydroxyethyl)-4-oxo-1,4-dihydroquinoline-3-carboxylic acid] | 65 nM
CCOc1ccccc1Cc1ccc2c(c1)c(=O)c(C(=O)O)cn2CCO [Example 4-13, 6-(2-Ethoxybenzyl)-1-(2-hydroxyethyl)-4-oxo-1,4-dihydroquinoline-3-carboxylic acid] | 300 nM
Cc1cc2c(cc1Cc1cccc(Cl)c1Cl)c(=O)c(C(=O)O)cn2CCO [Example 4-15, 6-(2,3-Dichlorobenzyl)-7-methyl-1-(2-hydroxyethyl)-4-oxo-1,4-dihydroquinoline-3-carboxylic acid] | 31 nM
CC(C)Oc1cc(Cc2cccc(Cl)c2F)cc2c(=O)c(C(=O)O)cn([C@@H](C)CO)c12 [Example 4-16, (S)-6-(3-Chloro-2-fluorobenzyl)-1-(2-hydroxy-1-methylethyl)-8-isopropyloxy-4-oxo-1,4-dihydroquinoline-3-carboxylic acid] | 7.1 nM
CC[C@@H](CO)n1cc(C(=O)O)c(=O)c2cc(Cc3cccc(Cl)c3F)cc(OC(C)C)c21 [Example 4-17, (S)-6-(3-Chloro-2-fluorobenzyl)-1-[1-(hydroxymethyl)propyl]-8-isopropyloxy-4-oxo-1,4-dihydroquinoline-3-carboxylic acid] | 3.1 nM
O=C(O)c1cn([C@H](CO)C2CCCCC2)c2ccc(Cc3cccc(Cl)c3F)cc2c1=O [Example 4-18, (S)-6-(3-Chloro-2-fluorobenzyl)-1-(1-cyclohexyl-2-hydroxyethyl)-4-oxo-1,4-dihydroquinoline-3-carboxylic acid] | 2 nM
CC(C)Oc1cc2c(cc1Cc1cccc(Cl)c1F)c(=O)c(C(=O)O)cn2[C@H](CO)C(C)C [Example 4-19, (S)-6-(3-Chloro-2-fluorobenzyl)-1-(1-hydroxymethyl-2-methylpropyl)-7-isopropyloxy-4-oxo-1,4-dihydroquinoline-3-carboxylic acid] | 2.9 nM
CC(C)Oc1cc2c(cc1Cc1cccc(Cl)c1F)c(=O)c(C(=O)O)cn2[C@H](CO)C(C)(C)C [Example 4-20, (S)-6-(3-Chloro-2-fluorobenzyl)-1-[2,2-dimethyl-1-(hydroxymethyl)propyl]-7-isopropyloxy-4-oxo-1,4-dihydroquinoline-3-carboxylic acid] | 1.7 nM
CCOc1cc(Cc2cccc(Cl)c2F)cc2c(=O)c(C(=O)O)cn([C@@H](CC)CO)c12 [Example 4-21, (S)-6-(3-Chloro-2-fluorobenzyl)-8-ethoxy-1-[1-(hydroxymethyl)propyl]-4-oxo-1,4-dihydroquinoline-3-carboxylic acid] | 4.5 nM
O=C(O)c1cn([C@H](CO)CC2CCCCC2)c2ccc(Cc3cccc(Cl)c3F)cc2c1=O [Example 4-22, (S)-6-(3-Chloro-2-fluorobenzyl)-1-[2-cyclohexyl-1-(hydroxymethyl)ethyl]-4-oxo-1,4-dihydroquinoline-3-carboxylic acid] | 2.9 nM
CC(C)C[C@@H](CO)n1cc(C(=O)O)c(=O)c2cc(Cc3cccc(Cl)c3F)c(OC(C)C)cc21 [Example 4-23, (S)-6-(3-Chloro-2-fluorobenzyl)-1-(1-hydroxymethyl-3-methylbutyl)-7-isopropyloxy-4-oxo-1,4-dihydroquinoline-3-carboxylic acid] | 3.8 nM
CC(C)Oc1cc(Cc2cccc(Cl)c2F)cc2c(=O)c(C(=O)O)cn([C@H](CO)C(C)C)c12 [Example 4-24, (S)-6-(3-Chloro-2-fluorobenzyl)-1-(1-hydroxymethyl-2-methylpropyl)-8-isopropyloxy-4-oxo-1,4-dihydroquinoline-3-carboxylic acid] | 2.5 nM
